Test results as given in ChEMBL document CHEMBL5724914, “Linking interpersonal differences in gut microbiota composition and drug biotransformation activity” (2024).

Experiments:
[1] = (§1) The drug is tested on Z-019 corresponding to rat gut metagenome with ENA study accession number: PRJEB37062 and ENA sample accession number: ERS12561818 for biotransformation under anaerobic condition. The drug concentrations were measured over 9 timepoints collected between 0 and 24 hours of incubation by liquid-chromatography-coupled mass spectrometry (LC–MS); settings: 2 µM
[2] = as §1, with “on Z-011” for “on Z-019”, “to mouse” for “to rat”, “number: ERS12561811” for “number: ERS12561818”; settings: 2 µM
[3] = as §1, with “Z-007” for “Z-019”, “ERS12561807” for “ERS12561818”; settings: 2 µM
[4] = as §1, with “on Z-006” for “on Z-019”, “to mouse” for “to rat”, “number: ERS12561806” for “number: ERS12561818”; settings: 2 µM
[5] = as §1, with “Z-005” for “Z-019”, “to” for “to rat gut”, “ERS12561805” for “ERS12561818”; settings: 2 µM
[6] = as §1, with “on Z-003” for “on Z-019”, “to pig” for “to rat”, “number: ERS12561803” for “number: ERS12561818”; settings: 2 µM
[7] = as §1, with “on WLS-086” for “on Z-019”, “to human” for “to rat”, “number: ERS12561752” for “number: ERS12561818”; settings: 2 µM
[8] = as §1, with “on WLS-077” for “on Z-019”, “to human” for “to rat”, “number: ERS12561750” for “number: ERS12561818”; settings: 2 µM
[9] = as §1, with “on WLS-010” for “on Z-019”, “to human” for “to rat”, “number: ERS12561743” for “number: ERS12561818”; settings: 2 µM
[10] = human gut metagenome, 24 h, 2 µM
[11] = human gut metagenome, 24 h, 2 µM; remark: listed apart in the source
[12] = human gut metagenome, 24 h, 2 µM; remark: listed apart in the source
[13] = human gut metagenome, 24 h, 2 µM; remark: listed apart in the source
[14] = human gut metagenome, 24 h, 2 µM; remark: listed apart in the source
[15] = human gut metagenome, 24 h, 2 µM; remark: listed apart in the source
[16] = human gut metagenome, 24 h, 2 µM; remark: listed apart in the source
[17] = human gut metagenome, 24 h, 2 µM; remark: listed apart in the source
[18] = human gut metagenome, 24 h, 2 µM; remark: listed apart in the source
[19] = human gut metagenome, 24 h, 2 µM; remark: listed apart in the source
[20] = human gut metagenome, 24 h, 2 µM; remark: listed apart in the source
Note: call rule not given here.

Row | Structure (SMILES) | Bacterial Biotransformation [1] | Bacterial Biotransformation [2] | Bacterial Biotransformation [3] | Bacterial Biotransformation [4] | Bacterial Biotransformation [5] | Bacterial Biotransformation [6] | Bacterial Biotransformation [7] | Bacterial Biotransformation [8] | Bacterial Biotransformation [9] | Bacterial Biotransformation [10] | Bacterial Biotransformation [11] | Bacterial Biotransformation [12] | Bacterial Biotransformation [13] | Bacterial Biotransformation [14] | Bacterial Biotransformation [15] | Bacterial Biotransformation [16] | Bacterial Biotransformation [17] | Bacterial Biotransformation [18] | Bacterial Biotransformation [19] | Bacterial Biotransformation [20]
1 | CCOC(=O)[C@H](CCc1ccccc1)N[C@@H](C)C(=O)N1[C@H](C(=O)O)C[C@@H]2CCC[C@@H]21 | Compound NOT metabolized | Compound NOT metabolized | Compound metabolized | Compound NOT metabolized | Compound metabolized | Compound metabolized | Compound metabolized | Compound metabolized | Compound metabolized | Compound metabolized | Compound metabolized | Compound metabolized | Compound NOT metabolized | Compound metabolized | Compound metabolized | Compound metabolized | Compound metabolized | Compound metabolized | Compound metabolized | Compound NOT metabolized
2 | CCN(CC)CCNC(C(=O)OCCC(C)C)c1ccccc1.Cl.Cl (stereo not drawn) | Compound NOT metabolized | Compound NOT metabolized | Compound NOT metabolized | Compound NOT metabolized | Compound metabolized | Compound metabolized | Compound metabolized | Compound metabolized | Compound metabolized | Compound metabolized | Compound metabolized | Compound NOT metabolized | Compound NOT metabolized | Compound metabolized | Compound NOT metabolized | Compound metabolized | Compound metabolized | Compound metabolized | Compound metabolized | Compound NOT metabolized
3 | CCCC(=O)Nc1ccc(OCC(O)CNC(C)C)c(C(C)=O)c1 (stereo not drawn) [ACEBUTOLOL] | Compound NOT metabolized | Compound NOT metabolized | Compound NOT metabolized | Compound NOT metabolized | Compound NOT metabolized | Compound metabolized | Compound metabolized | Compound NOT metabolized | Compound NOT metabolized | Compound NOT metabolized | Compound metabolized | Compound metabolized | Compound metabolized | Compound metabolized | Compound metabolized | Compound metabolized | Compound metabolized | Compound NOT metabolized | Compound NOT metabolized | Compound NOT metabolized
4 | C=CCc1ccccc1OCC(O)CNC(C)C (stereo not drawn) [ALPRENOLOL] | Compound NOT metabolized | Compound NOT metabolized | Compound NOT metabolized | Compound NOT metabolized | Compound NOT metabolized | Compound metabolized | Compound metabolized | Compound NOT metabolized | Compound NOT metabolized | Compound NOT metabolized | Compound metabolized | Compound metabolized | Compound NOT metabolized | Compound NOT metabolized | Compound NOT metabolized | Compound NOT metabolized | Compound metabolized | Compound NOT metabolized | Compound NOT metabolized | Compound NOT metabolized
5 | CCOC(=O)[C@H](CCc1ccccc1)N[C@H]1CCc2ccccc2N(CC(=O)O)C1=O [BENAZEPRIL] | Compound NOT metabolized | Compound metabolized | Compound metabolized | Compound metabolized | Compound metabolized | Compound metabolized | Compound metabolized | Compound metabolized | Compound metabolized | Compound metabolized | Compound metabolized | Compound metabolized | Compound metabolized | Compound metabolized | Compound metabolized | Compound NOT metabolized | Compound metabolized | Compound metabolized | Compound metabolized | Compound NOT metabolized
6 | NS(=O)(=O)c1cc2c(cc1Cl)N=C(CSCc1ccccc1)NS2(=O)=O [BENZTHIAZIDE] | Compound NOT metabolized | Compound NOT metabolized | Compound NOT metabolized | Compound NOT metabolized | Compound NOT metabolized | Compound NOT metabolized | Compound NOT metabolized | Compound NOT metabolized | Compound NOT metabolized | Compound NOT metabolized | Compound NOT metabolized | Compound NOT metabolized | Compound NOT metabolized | Compound NOT metabolized | Compound NOT metabolized | Compound NOT metabolized | Compound NOT metabolized | Compound NOT metabolized | Compound NOT metabolized | Compound NOT metabolized
7 | CC(C)NCC(O)COc1ccc(COCCOC(C)C)cc1.CC(C)NCC(O)COc1ccc(COCCOC(C)C)cc1.O=C(O)/C=C/C(=O)O (stereo not drawn) [BISOPROLOL FUMARATE] | Compound NOT metabolized | Compound metabolized | Compound NOT metabolized | Compound NOT metabolized | Compound NOT metabolized | Compound metabolized | Compound metabolized | Compound NOT metabolized | Compound NOT metabolized | Compound metabolized | Compound metabolized | Compound NOT metabolized | Compound metabolized | Compound NOT metabolized | Compound NOT metabolized | Compound NOT metabolized | Compound NOT metabolized | Compound NOT metabolized | Compound NOT metabolized | Compound NOT metabolized
8 | CCCCCOC(=O)Nc1nc(=O)n([C@@H]2O[C@H](C)[C@@H](O)[C@H]2O)cc1F [CAPECITABINE] | Compound NOT metabolized | Compound metabolized | Compound NOT metabolized | Compound NOT metabolized | Compound metabolized | Compound metabolized | Compound metabolized | Compound metabolized | Compound metabolized | Compound metabolized | Compound metabolized | Compound metabolized | Compound metabolized | Compound metabolized | Compound metabolized | Compound metabolized | Compound metabolized | Compound metabolized | Compound metabolized | Compound NOT metabolized
9 | COc1c2occc2cc2ccc(=O)oc12 [METHOXSALEN] | Compound NOT metabolized | Compound NOT metabolized | Compound NOT metabolized | Compound metabolized | Compound metabolized | Compound metabolized | Compound metabolized | Compound metabolized | Compound metabolized | Compound metabolized | – | Compound metabolized | Compound metabolized | Compound metabolized | Compound metabolized | Compound metabolized | – | Compound metabolized | Compound metabolized | Compound NOT metabolized
